Data from article PMC9960307, “Design, Synthesis, Biological Evaluation, and Molecular Dynamics Simulation of Influenza Polymerase PB2 Inhibitors” (Molecules, 2023).
Values joined by “and” are separate entries in the source; they are usually repeats but may differ in a detail not shown here. Equal entries are not always repeated. Where two headings read alike, the source gives them in different places.

What was measured:
in vitro [1] = details: human, microsomes, pH 7.4, Microsome T1/2, Human, human liver microsomes, 1 μM
[2] = set-up: method as in PMID 32604406; details: phase II clinical trial; cited from earlier work
in vitro [3] = details: rat, microsomes, pH 7.4, Microsome T1/2, Rat, rat liver microsomes, 1 μM
[4] = biological target: T1, influenza A/WSN/1933 (H1N1) PB2 CBD (aa.318-486) (Influenza A virus, UniProt P03427); experiment: SPR competitive binding assay (Biacore T200)
T1 construct: influenza A/WSN/1933 (H1N1) PB2 CBD (aa.318-486); purchased
Procedure: Biomolecular interaction analysis based on surface plasmon resonance (SPR) assays was performed using VX-787 and comp. I and II at concentrations ranging from 20 to 0.156 µM to investigate their competitive binding affinities with PB2 (Table 1).
Commercial companies express and purify HIN1 PB2 CBD protein, which provides influenza A/WSN/1933 (H1N1) PB2 CBD (aa.318-486). Using a Biacore T200 (GE Healthcare) and a running buffer of which contains a solution of 1 × PBS-P + 0.02 M phosphate buffer, 2.7 mM KCl, 0.137 M NaCl, and 0.05% Tween 20, H1N1 PB2 was immobilized to a level of 4900 response units (RUs). Serial dilutions of small molecules were injected, ranging in concentration from 20 µM to 0.156 µM. GE Healthcare’s Biacore Evaluation Software was used to fit the resulting data to the affinity binding model.

in vitro [5] = details: dog
virus-free cells = tested on: virus-free cells; set-up: method as in PMID 25547360; details: incubated in virus-free cells; cited from earlier work
aldehyde oxidase (AO) = biological target: T2, aldehyde oxidase (AO) (Homo sapiens, UniProt Q06278); experiment: AO-mediated metabolic stability in human liver cytosol with/without raloxifene; format: in vitro ADME; details: for sensitivity to aldehyde oxidase (AO substrate or not): human liver cytosol, in words; for half-life at 1 μM: pooled liver (hepatocyte) cytosol, pH 7.4, human liver cytoplasm, read-out: Cytoplasm T1/2, Human
T2 construct: Human liver cytosolic protein was incubated with VX-787, comp; I, and comp; II; from tissue; host or cells: pooled human liver (hepatocyte) cytosol
T2 sequence (Q06278 1-1338): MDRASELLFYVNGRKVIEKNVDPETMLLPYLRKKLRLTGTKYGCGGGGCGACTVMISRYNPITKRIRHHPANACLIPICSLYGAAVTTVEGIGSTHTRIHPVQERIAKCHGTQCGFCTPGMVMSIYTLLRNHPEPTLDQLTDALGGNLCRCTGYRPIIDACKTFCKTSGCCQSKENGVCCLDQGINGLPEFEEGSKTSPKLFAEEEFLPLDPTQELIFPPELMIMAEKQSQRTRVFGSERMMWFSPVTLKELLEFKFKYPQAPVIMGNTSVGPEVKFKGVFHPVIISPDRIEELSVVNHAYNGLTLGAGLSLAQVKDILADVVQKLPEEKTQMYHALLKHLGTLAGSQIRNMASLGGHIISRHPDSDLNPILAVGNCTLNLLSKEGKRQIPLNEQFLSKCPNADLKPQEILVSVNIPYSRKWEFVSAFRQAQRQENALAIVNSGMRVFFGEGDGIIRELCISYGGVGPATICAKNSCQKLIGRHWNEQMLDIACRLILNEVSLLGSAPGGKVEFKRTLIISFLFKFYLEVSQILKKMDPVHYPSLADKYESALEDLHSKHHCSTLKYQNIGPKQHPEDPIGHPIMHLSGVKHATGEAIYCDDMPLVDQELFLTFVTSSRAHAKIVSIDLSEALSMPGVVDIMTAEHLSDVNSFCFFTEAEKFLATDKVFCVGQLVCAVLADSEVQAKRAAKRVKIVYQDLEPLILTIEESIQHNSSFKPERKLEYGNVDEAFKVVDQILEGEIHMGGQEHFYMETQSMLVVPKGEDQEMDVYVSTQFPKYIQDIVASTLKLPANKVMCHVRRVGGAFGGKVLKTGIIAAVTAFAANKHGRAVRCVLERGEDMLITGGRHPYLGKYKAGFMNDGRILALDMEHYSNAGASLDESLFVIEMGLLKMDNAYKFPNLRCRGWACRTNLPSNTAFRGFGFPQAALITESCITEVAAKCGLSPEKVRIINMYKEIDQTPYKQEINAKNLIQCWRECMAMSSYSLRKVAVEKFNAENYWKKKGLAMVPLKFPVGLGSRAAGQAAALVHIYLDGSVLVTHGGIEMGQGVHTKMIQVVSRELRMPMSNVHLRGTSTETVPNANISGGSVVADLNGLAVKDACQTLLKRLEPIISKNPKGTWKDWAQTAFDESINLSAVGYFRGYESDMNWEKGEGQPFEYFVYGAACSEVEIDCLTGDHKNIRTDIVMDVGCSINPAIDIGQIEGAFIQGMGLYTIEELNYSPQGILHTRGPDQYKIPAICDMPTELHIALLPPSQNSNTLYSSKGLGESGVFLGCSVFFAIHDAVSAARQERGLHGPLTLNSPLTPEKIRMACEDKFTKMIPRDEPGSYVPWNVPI

[6] = oral dose 600 mg, bid, healthy volunteers; cited from earlier work
[7] = tested on: influenza virus A/Puerto Rico/8/1934 (H1N1); experiment: Cytopathic effect (CPE) inhibition assay, H1N1; format: cell-based, influenza A/Puerto Rico/8/1934 (H1N1); details: MDCK, 72 h, read-out: H1N1 IC50
[8] = tested on: influenza virus A/Hong Kong/8/68 (H3N2); experiment: Cytopathic effect (CPE) inhibition assay, H3N2; format: cell-based, influenza A/Hong Kong/8/68 (H3N2); details: MDCK cells, MOI 0.005, 72 h, CellTiter-Glo
[9] = not given; remark: listed apart in the source
influenza virus = experiment: CPE inhibition assay as summarised in the conclusions (strain not stated); format: cell-based; details: unidentified influenza virus
[10] = with AO inhibitor raloxifene, 0 min
[11] = with AO inhibitor raloxifene, 15 min
[12] = with AO inhibitor raloxifene, 30 min

T1 sequence (P03427 318-486): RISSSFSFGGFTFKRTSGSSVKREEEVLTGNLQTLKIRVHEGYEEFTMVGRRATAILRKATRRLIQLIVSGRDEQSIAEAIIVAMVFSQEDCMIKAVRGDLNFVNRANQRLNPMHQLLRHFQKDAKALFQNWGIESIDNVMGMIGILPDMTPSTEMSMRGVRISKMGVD

## O=C(O)[C@H]1C2CCC(CC2)[C@@H]1Nc1nc(-c2c[nH]c3ncc(F)cc23)ncc1F [VX-787, pimodivir, reference compound]
In vitro [1]
  half-life: 5.82 h
[2]
  adverse effects: no serious adverse effects
  viral load in patients: reduce the viral load
In vitro [3]
  half-life: 4.16 h
[4]; 20 to 0.156 µM, affinity binding model, read-out: SPR KD
  Kd: 152 nM
Rat liver microsomes
  Microsome Clh, Rat: 1.72 mL/min/kg
With NADPH, 0 min
  Residual percentage in rat liver microsome: 99.99±0.99%
With NADPH, 5 min
  Residual percentage in rat liver microsome: 98.25±4.53%
With NADPH, 15 min
  Residual percentage in rat liver microsome: 95.80±0.68%
With NADPH, 30 min
  Residual percentage in rat liver microsome: 91.51±3.09%
With NADPH, 60 min
  Residual percentage in rat liver microsome: 88.79±2.11% and 88%
Without NADPH, 0 min
  Residual percentage in rat liver microsome: 99.99±2.01%
Without NADPH, 5 min
  Residual percentage in rat liver microsome: 109.05%
Without NADPH, 15 min
  Residual percentage in rat liver microsome: 103.93%
Without NADPH, 30 min
  Residual percentage in rat liver microsome: 100.41%
Without NADPH, 60 min
  Residual percentage in rat liver microsome: 92.13±5.76%
In vitro [5]
  CC50: > 200000 nM
virus-free cells
  cytotoxicity: no cytotoxicity
Aldehyde oxidase (AO)
  sensitivity to aldehyde oxidase (AO substrate or not): indeed an AO substrate
  half-life at 1 μM: 2.5 h
Aldehyde oxidase (AO); [10]
  Residual percentage in 0.5mg/ml human liver cytoplasm: 100.00±3.54%
Aldehyde oxidase (AO); [11]
  Residual percentage in 0.5mg/ml human liver cytoplasm: 100.65±7.76%
Aldehyde oxidase (AO); [12]
  Residual percentage in 0.5mg/ml human liver cytoplasm: 97.25±1.77%
Aldehyde oxidase (AO); without raloxifene, 0 min
  Residual percentage in 0.5mg/ml human liver cytoplasm: 100.00±7.65%
Aldehyde oxidase (AO); without raloxifene, 15 min
  Residual percentage in 0.5mg/ml human liver cytoplasm: 87.02±9.00%
Aldehyde oxidase (AO); without raloxifene, 30 min
  Residual percentage in 0.5mg/ml human liver cytoplasm: 90.17±9.31%
Aldehyde oxidase (AO); without raloxifene, 60 min
  Residual percentage in 0.5mg/ml human liver cytoplasm: 71.87±6.78% and 72%
[6]
  safety in phase I clinical trial: no safety issues
[7]
  IC50: < 3 nM
[8]
  IC50: < 3 nM
[9]; human liver microsomes
  Microsome Clh, Human: 1.49 mL/min/kg
[9]; with NADPH, 0 min
  Residual percentage in human liver microsome: 99.99±4.23%
[9]; with NADPH, 5 min
  Residual percentage in human liver microsome: 103.84±1.21%
[9]; with NADPH, 15 min
  Residual percentage in human liver microsome: 91.56±7.20%
[9]; with NADPH, 30 min
  Residual percentage in human liver microsome: 101.85±8.49%
[9]; with NADPH, 60 min
  Residual percentage in human liver microsome: 89.33±8.96% and 89.33%
[9]; without NADPH, 0 min
  Residual percentage in human liver microsome: 100.00%
[9]; without NADPH, 5 min
  Residual percentage in human liver microsome: 110.26%
[9]; without NADPH, 15 min
  Residual percentage in human liver microsome: 100.78%
[9]; without NADPH, 30 min
  Residual percentage in human liver microsome: 113.32%
[9]; without NADPH, 60 min
  Residual percentage in human liver microsome: 107.81%

## O=C(O)C1C2CCC(CC2)C1Nc1nc(-n2c(=O)[nH]c3ncc(F)cc32)ncc1F [comp. I, (1R,2S,3S,4R)-3-((5-fluoro-2-(6-fluoro-2-oxo-2,3-dihydro-1H-imidazo[4,5-b]pyridin-1-yl)pyrimidin-4-yl)amino)bicyclo[2.2.2]octane-2-carboxylic acid]
In vitro [1]
  half-life: > 13.3 h
In vitro [3]
  half-life: > 13.3 h
[4]
  Kd: 1400 nM
rat, 0 min, 1 μM, pH 7.4
  Residual percentage in rat liver microsome: 100.00%
rat, 1 μM, pH 7.4
  Microsome Clh, Rat: 0.53 mL/min/kg
In vitro [5]
  CC50 at 72 h: > 200000 nM
Aldehyde oxidase (AO)
  sensitivity to aldehyde oxidase (AO substrate or not): remains as a substrate
  half-life at 1 μM: > 13.3 h
Aldehyde oxidase (AO); [10]
  Residual percentage in 0.5mg/ml human liver cytoplasm: 100.00±3.87%
Aldehyde oxidase (AO); [11]
  Residual percentage in 0.5mg/ml human liver cytoplasm: 108.27±5.07%
Aldehyde oxidase (AO); [12]
  Residual percentage in 0.5mg/ml human liver cytoplasm: 102.66±4.43%
Aldehyde oxidase (AO); with AO inhibitor raloxifene, 60 min
  Residual percentage in 0.5mg/ml human liver cytoplasm: 112.89±1.99%
Aldehyde oxidase (AO); without raloxifene, 0 min
  Residual percentage in 0.5mg/ml human liver cytoplasm: 100.00±6.12%
Aldehyde oxidase (AO); without raloxifene, 15 min
  Residual percentage in 0.5mg/ml human liver cytoplasm: 95.20±3.72%
Aldehyde oxidase (AO); without raloxifene, 30 min
  Residual percentage in 0.5mg/ml human liver cytoplasm: 99.98±8.74%
Aldehyde oxidase (AO); without raloxifene, 60 min
  Residual percentage in 0.5mg/ml human liver cytoplasm: 93%
Aldehyde oxidase (AO); without raloxifene, 60 min, listed as Comp I
  Residual percentage in 0.5mg/ml human liver cytoplasm: 93.52±8.82%
[7]
  IC50: 70 ± 20 nM
Influenza virus
  EC50: 40 nM
[8]
  IC50: 40 ± 10 nM
